Experiment [1] relates to Sclerotinia sclerotiorum. The experiment is described as follows: Preventive test against kidney bean stem rot. Format: in vivo. Conditions: 4 days, 25° C. On the procedure: Kidney bean plants (cultivar: Kintoki) were each grown in a 15 cm.phi. plastic pot to the trifoliate stage. The plants were sprayed with 10 ml/l pot of an aqueous diluted suspension of wettable powders of the chemicals of the invention and comparison chemical.
The wettable powders were prepared in a manner similar to example 1. After air drying for 5 hours, the plants were inoculated with mecelia of Sclerotinia sclerotiorum incubated with shaking in a Yeast-Glucose liquid medium, and kept in a humidic chamber at 25° C. for 4 days. Then the preventive value was calculated according to the equation given in test example 1.

A further experiment has as its system Altrenaria mali. The experiment is described as follows: Antifungal Test (PDA medium), Altrenaria mali. Format: cell-based. To be noted: 96 h, 25° C., 4 days, read-out: MIC Concentration. On the procedure:
(§1) Each chemical was mixed with PDA medium in an amount enough to obtain the pre-determined concentration level and solidified in 9 cm.phi. Petri dish. Then, various plant disease fungi were inoculated on the middle of the mixed agar plate and cultured at 25° C. for 4 days.
(§2) The minimum inhibition concentration (MIC) means that at which the development of the inoculated fungus was not recognized with the naked eye.

Experiment [2] concerns Botrytis cinerea (strain II). The experiment is described as follows: Antifungal Test (PDA medium), Botrytis cinerea (strain II). Format: cell-based. To be noted: 96 h, resistant to benzoimidazole type fungicide, 25° C., 4 days, read-out: MIC Concentration. On the procedure:
as §1, §2
*Botrytis cinerea (strain II) is the strain resistant to
benzoimidazoletype fungicide e.g. Benlate, TopsinM.

Another experiment relates to Altrenaria Kikuchiana. The experiment is described as follows: Antifungal Test (PDA medium), Altrenaria Kikuchiana. Format: cell-based. To be noted: 96 h, 25° C., 4 days, read-out: MIC Concentration. On the procedure: as §1, §2
The test system of experiment [3] is Botrytis cinerea (strain I). The experiment is described as follows: Antifungal Test (PDA medium), Botrytis cinerea (strain I). Format: cell-based. To be noted: 96 h, 25° C., 4 days, read-out: MIC Concentration. On the procedure:
as §1, §2

A further experiment has as its system Cochliobolus miyabeans. The experiment is described as follows: Preventive test against Rice brown spot disease. Conditions: Oryza sativa, 48 h, read-out: Preventive Value. Format: in vivo, Cochliobolus miyabeans on rice plants (cultivar: Kinmaze). The procedure:
Rice plants (cultivar: Kinmaze) were each grown in a 10 cm.phi. porcelain pot to the 3-4 leaves stage. The plants were sprayed with 10 ml/l pot of aqueous diluted suspensions of various types of wettable powders of the chemicals of the invention and comparison chemical [bis(dimethyl thiocarbamoyl)disulfide). The wettable powders were prepared in a manner similar to test example 1.
After air drying for 5 hours, the plants were inoculated with a spore suspension of Cochliobolus miyabeans incubated with a chaffy medium at 25° C. for 5 days.
These plants were kept in the humidic chamber at 27° C. for 48 hours after inoculation and the number of lesions were counted and preventive value was calculated according to the following equation. [formula]

In experiment [4] the test system is Sclerotinia sclerotiorum. The experiment is described as follows: Antifungal Test (PDA medium), Sclerotinia sclerotiorum. Format: cell-based. To be noted: 96 h, 25° C., 4 days, read-out: MIC Concentration. On the procedure: as §1, §2
The test system of the next experiment is Botrytis allii. As to the kind of experiment: Antifungal Test (PDA medium), Botrytis allii. Format: cell-based. To be noted: 96 h, 25° C., 4 days, read-out: MIC Concentration. On the procedure: as §1, §2
A further experiment relates to Botrytis cinerea. As to the kind of experiment: Preventive test against Cucumber Gray Mold disease. Format: in vivo. To be noted: 96 h, 4 days after inoculation, 23° C. On the procedure: Cucumber plants (cultivar: Satsukimidori), were each grown in a 15 cm.phi. plastic pot to the first leaf stage. The plants were sprayed with 10 ml/l pot of aqueous diluted suspensions of various types of wettable powders (including the wettable powder containing, as its active ingredient, compound No. 1 obtained in the Preparation Example 1, wettable powders, containing as active ingredients compounds Nos. 2-10 obtained in a manner similar to Preparation Example 1, and a wettable powder for a comparison chemical containing, as its active ingredient, tetrachloroisophthalonitrile obtained in manner similar to Preparation Example 1). After air-drying for 5 hours, the plants were inoculated with the mecelia of Botrytis cinerea inoculated with shaking in Yeast-Glucose liquid medium.
The cucumbers were kept in the humidic chamber at 23° C. for 4 days after inoculation and then checked with respect to their disease index. The checking was conducted as follows: The leaves were checked to determine the extent of lesion area and classified into six groups as indicated by indices 0, 1, 2, 3, 4, 5 based on the extent of the lesions and on the numbers of leaves n0, n1, n2, n3, n4, and n5 which corresponded to the indices, respectively, were also determined to calculate the disease index from the following equation.
1 lesion area of 1/5 times the total leaf area
2 lesion area of 2/5 times the total leaf area
3 lesion area of 3/5 times the total leaf area
4 lesion area of 4/5 times the total leaf area
5 lesion area above 4/5 times the total leaf area
(where n is the total number of checked leaves)
The preventive value was calculated from the following equation. [formula]

Structures are written as SMILES. Converted amounts (≈) assume the structure as drawn.

In the case of `Nc1c(Cl)cc([N+](=O)[O-])cc1Cl` [2,6dichloro-4-nitroaniline, reference compound], the “Preventive Value” in the experiment with Sclerotinia sclerotiorum [1] (500 ppm) was 70.5%.

Regarding `CCCCNC(=O)n1c(NC(=O)OC)nc2ccccc21` [Benlate, reference compound], the MIC was more than 100 µg/mL in the experiment on Altrenaria mali, more than 100 µg/mL in experiment [2], more than 100 µg/mL in the experiment on Altrenaria Kikuchiana and 0.4 µg/mL (≈ 1.38 µM) in experiment [3].

With `CN(C)C(=S)SSC(=S)N(C)C` [Bis(dimethyl thiocarbamoyl)disulfide, reference compound], the pest or weed control at 500 ppm in the experiment with Cochliobolus miyabeans came out at 83.3%.

Turning to `O=C1C2SCCN2C(=O)N1c1cc(Cl)cc(Cl)c1` (stereo not drawn) [Compound No. 1, 6-(3,5-dichlorophenyl)perhydroimidazo[5,1-b]thiazole-5,7-dion], the MIC with Altrenaria mali amounted to 3.1 µg/mL (≈ 10.2 µM); with Sclerotinia sclerotiorum [4], 1.6 µg/mL (≈ 5.28 µM); in the experiment on Botrytis allii, 6.2 µg/mL (≈ 20.5 µM); in experiment [2], 3.1 µg/mL (≈ 10.2 µM); in the experiment with Altrenaria Kikuchiana, 3.1 µg/mL (≈ 10.2 µM); in [3], 3.1 µg/mL (≈ 10.2 µM). In the experiment with Botrytis cinerea, the pest or weed control at 62.5 ppm turned out to be 100%. The compound further yielded a pest or weed control at 125 ppm in the experiment with Botrytis cinerea of 100%. In the experiment on Botrytis cinerea, this compound registered a pest or weed control at 250 ppm of 100%. In addition, the figures for the pest or weed control at 500 ppm in the experiment on Botrytis cinerea and in the experiment on Cochliobolus miyabeans were 100% and 95.1%, respectively. Also, the “Preventive Value” in the experiment on Sclerotinia sclerotiorum [1] (50 ppm) was 95.3%; with Sclerotinia sclerotiorum [1] (100 ppm), 98.2%; in the experiment on Sclerotinia sclerotiorum [1] (200 ppm), 100%.

Consider `O=C1C2SCCN2C(=S)N1c1cc(Cl)cc(Cl)c1` (stereo not drawn) [Compound No. 2, 6-(3,5-dichlorophenyl)perhydroimidazo[5,1-b]thiazole-5-thion-7-on], for which the pest or weed control at 500 ppm with Botrytis cinerea stood at 92%; in the experiment on Cochliobolus miyabeans, 88.4%. The “Preventive Value” worked out at 93.8% with Sclerotinia sclerotiorum [1] (50 ppm), 96.5% in the experiment on Sclerotinia sclerotiorum [1] (100 ppm) and 100% in the experiment on Sclerotinia sclerotiorum [1] (200 ppm).

`CC12SCCN1C(=O)N(c1cc(Cl)cc(Cl)c1)C2=O` (stereo not drawn) [Compound No. 3, 7a-methyl-6-(3,5-dichlorophenyl)perhydroimidazo[5,1-b]thiazole-5,7-dion]: the MIC was 3.1 µg/mL (≈ 9.77 µM) with Altrenaria mali; 1.6 µg/mL (≈ 5.04 µM) with Sclerotinia sclerotiorum [4]; 3.1 µg/mL (≈ 9.77 µM) with Botrytis allii; 0.8 µg/mL (≈ 2.52 µM) in [2]; 3.1 µg/mL (≈ 9.77 µM) with Altrenaria Kikuchiana; 1.6 µg/mL (≈ 5.04 µM) in experiment [3]. In the experiment with Botrytis cinerea, this compound registered a pest or weed control at 62.5 ppm of 100%. For the same compound, in the experiment on Botrytis cinerea, the pest or weed control at 125 ppm was determined as 100%. The pest or weed control at 250 ppm in the experiment on Botrytis cinerea stood at 100%. The results for the pest or weed control at 500 ppm in the experiment on Botrytis cinerea and with Cochliobolus miyabeans were 100% and 96.2%, respectively.

On to `CC12SCCN1C(=S)N(c1cc(Cl)cc(Cl)c1)C2=O` (stereo not drawn) [Compound No. 4, 7a-methyl-6-(3,5-dichlorophenyl)perhydroimidazo[5,1-b]thiazole-5-thion-7-on], for which the pest or weed control at 500 ppm was determined as 93% with Botrytis cinerea and 85.7% in the experiment with Cochliobolus miyabeans.

Regarding `O=C1C2N(CCS2(=O)=O)C(=O)N1c1cc(Cl)cc(Cl)c1` (stereo not drawn) [Compound No. 5, 6-(3,5-dichlorophenyl)perhydroimidazo[5,1-b]thiazole-5,7-dion-1,1-dioxide], the values for the pest or weed control at 500 ppm in the experiment on Botrytis cinerea and in the experiment on Cochliobolus miyabeans were 91% and 89.6%, respectively.

For `CC12C(=O)N(c3cc(Cl)cc(Cl)c3)C(=O)N1CCS2(=O)=O` (stereo not drawn) [Compound No. 6, 7a-methyl-6-(3,5-dichlorophenyl)perhydroimidazo[5,1-b]thiazole-5,7-dion-1,1-dioxide], the pest or weed control at 500 ppm in the experiment on Botrytis cinerea came out at 90%; in the experiment on Cochliobolus miyabeans, 90.6%.

As to `CCCC12SCCN1C(=O)N(c1cc(Cl)cc(Cl)c1)C2=O` (stereo not drawn) [Compound No. 8, 7a-n-propyl-6-(3,5-dichlorophenyl)perhydroimidazo[5,1-b]thiazole-5,7-dion], the pest or weed control at 500 ppm in the experiment with Botrytis cinerea came out at 97%; with Cochliobolus miyabeans, 85.4%.

As for `CCC12SCCN1C(=S)N(c1cc(Cl)cc(Cl)c1)C2=O` (stereo not drawn) [Compound No. 9, 7a-ethyl-6-(3,5-dichlorophenyl)perhydroimidazo[5,1-b]thiazole-5-thion-7-on], the pest or weed control at 500 ppm is 96% in the experiment with Botrytis cinerea and 82.9% with Cochliobolus miyabeans.

As for `CCCC12SCCN1C(=S)N(c1cc(Cl)cc(Cl)c1)C2=O` (stereo not drawn) [Compound No. 10, 7a-n-propyl-6-(3,5-dichlorophenyl)perhydroimidazo[5,1-b]thiazole-5-thion-7-on], the values for the pest or weed control at 500 ppm in the experiment on Botrytis cinerea and in the experiment on Cochliobolus miyabeans were 94% and 83.2%, respectively.

As for `N#Cc1c(Cl)c(Cl)c(Cl)c(C#N)c1Cl` [Tetrachloro isophthalonitrile, reference compound], the pest or weed control at 500 ppm in the experiment on Botrytis cinerea was determined as 65%.

On to `CCC12SCCN1C(=O)N(c1cc(Cl)cc(Cl)c1)C2=O` (stereo not drawn) [compound 7, 7a-ethyl-6-(3,5-dichlorophenyl)perhydroimidazo[5,1-b]thiazole-5,7-dion], for which the pest or weed control at 500 ppm in the experiment with Botrytis cinerea came to 100%; with Cochliobolus miyabeans, 90.8%.
